Assay results reported in US5234907A, “Synthetic vasoactive intestinal peptide analogs” (Hoffmann-La Roche Inc., priority 1991, dated 1993).
*1 amine or outer side, *2 acyl side, *3 side chain or, on linkers, in order; H or OH if unused. [ ]: non-standard residue; d: D form. Cys(Acm) = CC(=O)NCSC[C@H](N[*:1])C(=O)[*:2]; Phe(4-F) = N[C@@H](Cc1ccc(F)cc1)C(=O)O; Nle = CCCC[C@H](N)C(=O)O; Orn = NCCC[C@H](N)C(=O)O

Key:
[1] = system: guinea pig tracheal smooth muscle; assay: Tracheal relaxant activity of VIP analogs on isolated guinea pig tracheal rings; format: cell-based; settings: cumulative concentration response; responses as % of maximum response to VIP (10^-6 M=100%); at least three tissues pooled; linear regression
Description: The relaxant activity of the VIP analogs was studied in a model utilizing guinea pig trachea. [Wasserman, M. A. et al., in Vasoactive Intestinal Peptide, S. I. Said, ed., Raven Press, N.Y. 1982, pp 177-184]; All tissues were taken from male albino guinea pig weighing 400-600 g, anesthesized with urethane (2 g/kg, i.p.). After exanguination, the trachea were removed and divided into four ring segments (3 mm length). Each ring was suspended by 30 gauge stainless steel wires in a 10 mL jacketed tissue bath and attached via 4-0 silk thread to a Grass force displacement transducer (model FT03C, Grass Instruments Co., Quincy, Ma), for isometric recording of tension. The smooth muscle was bathed in modified Krebs solution of the following composition: NaCl, 120 mM; KCl, 4.7 mM; CaCl2, 2.5 mM; MgSO.4 7H2 O, 1.2 mM; NaHCO3, 25 mM; K2 HPO4 monobasic, 1.2 mM; and dextrose, 10 mM. Tissue baths were maintained at 37° C. and constantly bubbled with 95% O2 and 5% CO2. Responses were recorded on an 8 channel and a 4 channel Hewlett-Packard (model 7702B and 7754A, respectively) recorder (Hewlett-Packard, Paramus, N.J.). […] Frequent readjustments of tension were required during the 60 minute stabilization period which followed. Tissues were rinsed at 15 minute intervals.
Cumulative concentration response curves were obtained for each tissue by successive […] increases in the bath concentration of VIP or VIP analogs according to the method of VanRossum [Arch. Int. Pharmacodyn., 143, 299-330 (1963)]. Only one cumulative dose response curve was obtained on a single tissue. To minimize variability between tissues, relaxant responses were expressed as a percentage of the maximum response obtained to VIP (10^-6 M=100%) added at the end of each concentration response experiment. Responses obtained from at least three tissues were pooled and EC50 values were determined by linear regression.

guinea pigs = assay: In vivo bronchodilator activity by tracheal instillation against histamine-induced bronchoconstriction; design: species or system guinea pig; settings: 100 μl, anesthetized male Hartley guinea pigs, histamine challenge 50 μg/kg i.v., inhibition of tracheal pressure increase
Description: The in vivo bronchodilator activity of VIP analogs in guinea pigs was assessed by the tracheal instillation route of administration. This technique utilized male guinea pigs (Hartley strain, Charles River) weighing 400-600 g. Animals were anesthetized with urethane (2 g/kg) intraperitoneally and a polyethylene cannula was inserted into the jugular vein for intravenous drug administration.
The animals were tracheotomized and dosing solutions of distilled water or test compound dissolved in distilled water were administered into the trachea, approximately three-quarter the distance to the carina with a pipette. The concentration of the dosing solution was adjusted to deliver a constant volume of 100 μl. The animals were placed supine for one minute to aid drug delivery to the lung. One minute later, spontaneous breathing was arrested with succinylcholine chloride (1.2 mg/kg) administered intravenously, and the animals were ventilized with a Harvard Model 680 small animal respirator set at 40 breaths/min and 4.0 cm^3 stoke volume. The animals were challenged with a maximal constrictory dose of histamine (50 μg/kg, i.v.) and tracheal pressure (cm of water) was recorded from a Statham pressure transducer (P 32 AA).
The change in tracheal pressure was averaged for at least 3 control and 3 drug-treated animals and percent inhibition was calculated. The relative potency of compounds administered by the instillation route was determined by administering various doses of test compound and calculating the median inhibitory dose (ID50 value). The ID50 was determined from log dose-reasons curves generated by at least 3 doses that caused inhibitory effects between 10% and 90%. The correlation coefficient for the regression line of each antagonist was always greater than 0.95.
For determination of the time course of inhibition for various compounds, the time between administration of compound and challenge with histamine was varied. The time course of activity was calculated as the time when inhibition decreased to 40%.

| Substance | EC50 [1] | Bronchodilator activity in guinea pigs, ED50 (guinea pigs) |
| --- | --- | --- |
| Ac--[Glu^8, Lys^12, Nle^17, Ala^19, Ala^25, Leu^26, Lys^27,28, Ala^29-31 ]--VIP (Ac-HSDAVFTENYTKLRKQ[Nle]AAKKYLNALKKAAA-NH2; SMILES CCCC[C@H](NC(=O)[C@H](CCC(N)=O)NC(=O)[C@H](CCCCN)NC(=O)[C@H](CCCNC(=N)N)NC(=O)[C@H](CC(C)C)NC(=O)[C@H](CCCCN)NC(=O)[C@@H](NC(=O)[C@H](Cc1ccc(O)cc1)NC(=O)[C@H](CC(N)=O)NC(=O)[C@H](CCC(=O)O)NC(=O)[C@@H](NC(=O)[C@H](Cc1ccccc1)NC(=O)[C@@H](NC(=O)[C@H](C)NC(=O)[C@H](CC(=O)O)NC(=O)[C@H](CO)NC(=O)[C@H](Cc1c[nH]cn1)NC(C)=O)C(C)C)[C@@H](C)O)[C@@H](C)O)C(=O)N[C@@H](C)C(=O)N[C@@H](C)C(=O)N[C@@H](CCCCN)C(=O)N[C@@H](CCCCN)C(=O)N[C@@H](Cc1ccc(O)cc1)C(=O)N[C@@H](CC(C)C)C(=O)N[C@@H](CC(N)=O)C(=O)N[C@@H](C)C(=O)N[C@@H](CC(C)C)C(=O)N[C@@H](CCCCN)C(=O)N[C@@H](CCCCN)C(=O)N[C@@H](C)C(=O)N[C@@H](C)C(=O)N[C@@H](C)C(N)=O) [Ac--(SEQ ID NO: 21)--NH2] | 0.1 nM | 0.03 µg |
| Ac--[Glu^8, Lys^12, Nle^17, Ala^19, Val^26, Thr^28, Gly^29,30, Thr^31 ]--VIP (Ac-HSDAVFTENYTKLRKQ[Nle]AAKKYLNSVLTGGT-NH2; SMILES CCCC[C@H](NC(=O)[C@H](CCC(N)=O)NC(=O)[C@H](CCCCN)NC(=O)[C@H](CCCNC(=N)N)NC(=O)[C@H](CC(C)C)NC(=O)[C@H](CCCCN)NC(=O)[C@@H](NC(=O)[C@H](Cc1ccc(O)cc1)NC(=O)[C@H](CC(N)=O)NC(=O)[C@H](CCC(=O)O)NC(=O)[C@@H](NC(=O)[C@H](Cc1ccccc1)NC(=O)[C@@H](NC(=O)[C@H](C)NC(=O)[C@H](CC(=O)O)NC(=O)[C@H](CO)NC(=O)[C@H](Cc1c[nH]cn1)NC(C)=O)C(C)C)[C@@H](C)O)[C@@H](C)O)C(=O)N[C@@H](C)C(=O)N[C@@H](C)C(=O)N[C@@H](CCCCN)C(=O)N[C@@H](CCCCN)C(=O)N[C@@H](Cc1ccc(O)cc1)C(=O)N[C@@H](CC(C)C)C(=O)N[C@@H](CC(N)=O)C(=O)N[C@@H](CO)C(=O)N[C@H](C(=O)N[C@@H](CC(C)C)C(=O)N[C@H](C(=O)NCC(=O)NCC(=O)N[C@H](C(N)=O)[C@@H](C)O)[C@@H](C)O)C(C)C) [Ac--(SEQ ID NO: 15)--NH2] | 0.55 nM | 0.064 µg |
| Ac--[Glu^8, Lys^12, Nle^17, Ala^25, Leu^26, Lys^27,28, Gly^29,30, Thr^31 ]--VIP (Ac-HSDAVFTENYTKLRKQ[Nle]AVKKYLNALKKGGT-NH2; SMILES CCCC[C@H](NC(=O)[C@H](CCC(N)=O)NC(=O)[C@H](CCCCN)NC(=O)[C@H](CCCNC(=N)N)NC(=O)[C@H](CC(C)C)NC(=O)[C@H](CCCCN)NC(=O)[C@@H](NC(=O)[C@H](Cc1ccc(O)cc1)NC(=O)[C@H](CC(N)=O)NC(=O)[C@H](CCC(=O)O)NC(=O)[C@@H](NC(=O)[C@H](Cc1ccccc1)NC(=O)[C@@H](NC(=O)[C@H](C)NC(=O)[C@H](CC(=O)O)NC(=O)[C@H](CO)NC(=O)[C@H](Cc1c[nH]cn1)NC(C)=O)C(C)C)[C@@H](C)O)[C@@H](C)O)C(=O)N[C@@H](C)C(=O)N[C@H](C(=O)N[C@@H](CCCCN)C(=O)N[C@@H](CCCCN)C(=O)N[C@@H](Cc1ccc(O)cc1)C(=O)N[C@@H](CC(C)C)C(=O)N[C@@H](CC(N)=O)C(=O)N[C@@H](C)C(=O)N[C@@H](CC(C)C)C(=O)N[C@@H](CCCCN)C(=O)N[C@@H](CCCCN)C(=O)NCC(=O)NCC(=O)N[C@H](C(N)=O)[C@@H](C)O)C(C)C) [Ac--(SEQ ID NO: 16)--NH2] | 0.27 nM | 0.043 µg |
| Ac--[Glu^8, Lys^12, Nle^17, Val^26, Thr^28, Gly^29,30, Cys(Acm)^31 ]--VIP (Ac-HSDAVFTENYTKLRKQ[Nle]AVKKYLNSVLTGG[Cys(Acm)]-NH2; SMILES CCCC[C@H](NC(=O)[C@H](CCC(N)=O)NC(=O)[C@H](CCCCN)NC(=O)[C@H](CCCNC(=N)N)NC(=O)[C@H](CC(C)C)NC(=O)[C@H](CCCCN)NC(=O)[C@@H](NC(=O)[C@H](Cc1ccc(O)cc1)NC(=O)[C@H](CC(N)=O)NC(=O)[C@H](CCC(=O)O)NC(=O)[C@@H](NC(=O)[C@H](Cc1ccccc1)NC(=O)[C@@H](NC(=O)[C@H](C)NC(=O)[C@H](CC(=O)O)NC(=O)[C@H](CO)NC(=O)[C@H](Cc1c[nH]cn1)NC(C)=O)C(C)C)[C@@H](C)O)[C@@H](C)O)C(=O)N[C@@H](C)C(=O)N[C@H](C(=O)N[C@@H](CCCCN)C(=O)N[C@@H](CCCCN)C(=O)N[C@@H](Cc1ccc(O)cc1)C(=O)N[C@@H](CC(C)C)C(=O)N[C@@H](CC(N)=O)C(=O)N[C@@H](CO)C(=O)N[C@H](C(=O)N[C@@H](CC(C)C)C(=O)N[C@H](C(=O)NCC(=O)NCC(=O)N[C@@H](CSCNC(C)=O)C(N)=O)[C@@H](C)O)C(C)C)C(C)C) [Ac--(SEQ ID NO: 85)--NH2] | 0.45 nM | 2.0 µg |
| Ac--[Leu^5, p-F--Phe^6, Glu^8, Orn^12, Ala^17,19, Thr^25, Val^26, Thr^28, Gly^29,30, Cys(Acm)^31 ]--VIP (Ac-HSDAL[Phe(4-F)]TENYT[Orn]LRKQAAAKKYLNTVLTGG[Cys(Acm)]-NH2; SMILES CC(=O)NCSC[C@H](NC(=O)CNC(=O)CNC(=O)[C@@H](NC(=O)[C@H](CC(C)C)NC(=O)[C@@H](NC(=O)[C@@H](NC(=O)[C@H](CC(N)=O)NC(=O)[C@H](CC(C)C)NC(=O)[C@H](Cc1ccc(O)cc1)NC(=O)[C@H](CCCCN)NC(=O)[C@H](CCCCN)NC(=O)[C@H](C)NC(=O)[C@H](C)NC(=O)[C@H](C)NC(=O)[C@H](CCC(N)=O)NC(=O)[C@H](CCCCN)NC(=O)[C@H](CCCNC(=N)N)NC(=O)[C@H](CC(C)C)NC(=O)[C@H](CCCN)NC(=O)[C@@H](NC(=O)[C@H](Cc1ccc(O)cc1)NC(=O)[C@H](CC(N)=O)NC(=O)[C@H](CCC(=O)O)NC(=O)[C@@H](NC(=O)[C@H](Cc1ccc(F)cc1)NC(=O)[C@H](CC(C)C)NC(=O)[C@H](C)NC(=O)[C@H](CC(=O)O)NC(=O)[C@H](CO)NC(=O)[C@H](Cc1c[nH]cn1)NC(C)=O)[C@@H](C)O)[C@@H](C)O)[C@@H](C)O)C(C)C)[C@@H](C)O)C(N)=O) [Ac--(SEQ ID NO: 13)--NH2] | 0.68 nM | 0.09 µg |
| Ac--[Lys^12, Nle^17, Ala^19, Ala^25, Leu^26, Lys^27,28 ]--VIP (Ac-HSDAVFTDNYTKLRKQ[Nle]AAKKYLNALKK-NH2; SMILES CCCC[C@H](NC(=O)[C@H](CCC(N)=O)NC(=O)[C@H](CCCCN)NC(=O)[C@H](CCCNC(=N)N)NC(=O)[C@H](CC(C)C)NC(=O)[C@H](CCCCN)NC(=O)[C@@H](NC(=O)[C@H](Cc1ccc(O)cc1)NC(=O)[C@H](CC(N)=O)NC(=O)[C@H](CC(=O)O)NC(=O)[C@@H](NC(=O)[C@H](Cc1ccccc1)NC(=O)[C@@H](NC(=O)[C@H](C)NC(=O)[C@H](CC(=O)O)NC(=O)[C@H](CO)NC(=O)[C@H](Cc1c[nH]cn1)NC(C)=O)C(C)C)[C@@H](C)O)[C@@H](C)O)C(=O)N[C@@H](C)C(=O)N[C@@H](C)C(=O)N[C@@H](CCCCN)C(=O)N[C@@H](CCCCN)C(=O)N[C@@H](Cc1ccc(O)cc1)C(=O)N[C@@H](CC(C)C)C(=O)N[C@@H](CC(N)=O)C(=O)N[C@@H](C)C(=O)N[C@@H](CC(C)C)C(=O)N[C@@H](CCCCN)C(=O)N[C@@H](CCCCN)C(N)=O) [Ac--(SEQ ID NO: 12)--NH2] | 1.5 nM | 0.014 µg |
